Series [1] concerns the target T1, CYP17 (human testicular microsome) (Homo sapiens, UniProt P05093).
T1 construct: using microsomal fraction from human testis (Celsis Cat #S00110) as the enzyme source; tissue Celsis S00110; host or cells: human testis microsomal fraction
T1 sequence (P05093 1-508): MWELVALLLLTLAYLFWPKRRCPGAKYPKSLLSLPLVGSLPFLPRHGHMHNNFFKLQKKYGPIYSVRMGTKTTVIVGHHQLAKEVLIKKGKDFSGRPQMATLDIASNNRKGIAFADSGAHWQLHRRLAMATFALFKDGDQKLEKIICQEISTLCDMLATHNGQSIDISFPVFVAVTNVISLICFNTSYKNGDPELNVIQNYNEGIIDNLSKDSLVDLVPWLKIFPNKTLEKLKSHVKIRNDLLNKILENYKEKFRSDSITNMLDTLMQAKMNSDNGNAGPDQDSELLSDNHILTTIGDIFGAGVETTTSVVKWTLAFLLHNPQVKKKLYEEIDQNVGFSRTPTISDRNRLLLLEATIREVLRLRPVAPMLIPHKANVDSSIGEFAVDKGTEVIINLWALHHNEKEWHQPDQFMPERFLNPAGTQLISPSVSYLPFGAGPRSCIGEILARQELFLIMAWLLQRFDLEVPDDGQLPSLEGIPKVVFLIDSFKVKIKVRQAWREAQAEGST
Put plainly: CYP17 enzymatic assay (% inhibition at 10 nM), version 1 (Biological Example 5). It is filed as biochemical. The settings on record: 10 nM compound, DHEA by ELISA, read-out: Biological Example No. 5: CYP17 percent inhibition at 10 nM (version 1). On the technique in general: In an ELISA, binding on a coated surface is turned into a signal by an enzyme label.

Series [2] can be described thus: Rat liver microsome stability assay (Biological Example 8a). The settings on record: liver microsomes, pH 7.4. (In general: Liver microsomes are a subcellular fraction often used to study metabolism.)
Experimental: Each test compound (1.5 μM, 30 μL) was incubated with rat (BD Gentest, Cat No. 452501) or human (BD Gentest, Cat No. 452161) liver microsomes (0.75 mg/mL, 0.1 M potassium phosphate buffer, 1.0 mM EDTA, pH 7.4) in 96 well plates. The reaction was started with addition of excess NADPH (5 mg/mL, 15 μL in 0.1 M potassium phosphate buffer, 1.0 mM EDTA, pH 7.4), the total volume is 45 μL (compound final concentration was 1 μM). The incubations were terminated at time zero and at 5, 15, 30, and 60 minutes by addition of 135 μL/excess ACN containing internal standard (1S). After quenching, the reaction mixtures was centrifuged (Eppendorf Centrifuge 5810R) at 3220×g for 10 min (4° C.). 50 μL of the supernatant was transferred from each well into a 96-well sample plate containing 50 μL of ultra-pure water (Millipore) for LC-MS/MS analysis. The half-life T1/2=0.693/K (K is the rate constant from a plot of log [concentration] vs. incubation time) was calculated.
Series [3] concerns the target T1, CYP17 (human testicular microsome). Nature of the series: CYP17 enzymatic assay (IC50) (Biological Example 4). It is filed as biochemical. As to conditions: human testicular microsome, DHEA by ELISA; read-out: Biological Example No. 4: CYP17 enzymatic assay IC50.

The inhibition is the share of the control response that was lost under treatment. As a reminder, the half-life is the time needed for the level to fall by half in the phase considered. The low end stands for rapid decline, the high end for slow decline. A word on the IC50: it is the concentration that inhibits the measured activity by half.

As for `Cc1cncc(C2=CC[C@H]3[C@@H]4CCN5C(=O)CCCC[C@]5(C)[C@H]4CC[C@]23C)c1` [Compound 39, (11aR,13aS)-11a,13a-dimethyl-1-(5-methylpyridin-3-yl)-3b,4,5,8,9,10,11,11a,11b,12,13,13a-dodecahydro-3H-azepino[2,1-a]cyclopenta[f]isoquinolin-7(3aH)-one], the inhibition at 0.01 µM in series [1] lay within 50 to 80%. In series [2], this compound yielded a half-life at 1 μM of 1 to 10 min. Further, the IC50 in series [3] was below 11 nM.
As to `COc1cncc(C2=CC[C@H]3[C@@H]4CCN5C(=O)CCCC[C@]5(C)[C@H]4CC[C@]23C)c1` [Compound 40, (11aR,13aS)-1-(5-methoxypyridin-3-yl)-11a,13a-dimethyl-3b,4,5,8,9,10,11,11a,11b,12,13,13a-dodecahydro-3H-azepino[2,1-a]cyclopenta[f]isoquinolin-7(3aH)-one], in series [1], the inhibition at 0.01 µM was above 80%. In addition, in series [2], the half-life at 1 μM was 1 to 10 min. Besides, in series [3], the IC50 was below 11 nM.
The corresponding values for `CCc1cncc(C2=CC[C@H]3[C@@H]4CCN5C(=O)CCCC[C@]5(C)[C@H]4CC[C@]23C)c1` [Compound 41, (11aR,13aS)-1-(5-ethylpyridin-3-yl)-11a,13a-dimethyl-3b,4,5,8,9,10,11,11a,11b,12,13,13a-dodecahydro-3H-azepino[2,1-a]cyclopenta[f]isoquinolin-7(3aH)-one] are above 80%, 1 to 10 min and below 11 nM.
In the case of `CCCOc1cncc(C2=CC[C@H]3[C@@H]4CCN5CCCCC[C@]5(C)[C@H]4CC[C@]23C)c1` [Compound 46, (11aR,13aS)-11a,13a-dimethyl-1-(5-propoxypyridin-3-yl)-3a,3b,4,5,7,8,9,10,11,11a,11b,12,13,13a-tetradecahydro-3H-azepino[2,1-a]cyclopenta[f]isoquinoline], the inhibition at 0.01 µM in series [1] fell in the range of 50 to 80%. In addition, the half-life at 1 μM in series [2] was 10 to 60 min.
`CCc1cncc(C2=CC[C@H]3[C@@H]4CCN5CCCCC[C@]5(C)[C@H]4CC[C@]23C)c1` [Compound 48, (11aR,13aS)-1-(5-ethylpyridin-3-yl)-11a,13a-dimethyl-3a,3b,4,5,7,8,9,10,11,11a,11b,12,13,13a-tetradecahydro-3H-azepino[2,1-a]cyclopenta[f]isoquinoline]: the inhibition at 0.01 µM in series [1] lay in the range of 1 to 50%. The compound also yielded a half-life at 1 μM in series [2] of 1 to 10 min.
In the case of `C[C@]12CCNC(=O)C=C1CC[C@@H]1[C@@H]2CC[C@]2(C)C(n3ncnn3)=CC[C@@H]12` [Compound 63], in series [1], the inhibition at 0.01 µM is above 80%. Besides, in series [2], the half-life at 1 μM was 1 to 10 min.
On to `Cc1cncc(C2=CC[C@H]3[C@@H]4CC(O)C5CCCC[C@]5(C)[C@H]4CC[C@]23C)c1` (stereo partly drawn) [Compound 70, (10R,13S)-10,13-dimethyl-17-(5-methylpyridin-3-yl)-2,3,4,5,6,7,8,9,10,11,12,13,14,15-tetradecahydro-1H-cyclopenta[a]phenanthren-6-ol], for which the half-life at 1 μM in series [2] fell in the range of 1 to 10 min. Moreover, the 50% inhibitory concentration (IC50) in series [3] is below 11 nM.
`Cc1cncc(C2=CC[C@H]3[C@@H]4CC(=O)C5CCCC[C@]5(C)[C@H]4CC[C@]23C)c1` (stereo partly drawn) [Compound 71, (10R,13S)-10,13-dimethyl-17-(5-methylpyridin-3-yl)-2,3,4,5,7,8,9,11,12,13,14,15-dodecahydro-1H-cyclopenta[a]phenanthren-6(10H)-one] yielded a half-life at 1 μM in series [2] of 1 to 10 min. The IC50 in series [3] is below 11 nM.
The corresponding values for `COc1cncc(C2=CC[C@H]3[C@@H]4CC(=O)C5CCCC[C@]5(C)[C@H]4CC[C@]23C)c1` (stereo partly drawn) [Compound 72, (10R,13S)-17-(5-methoxypyridin-3-yl)-10,13-dimethyl-2,3,4,5,7,8,9,11,12,13,14,15-dodecahydro-1H-cyclopenta[a]phenanthren-6(10H)-one] are 1 to 10 min and below 11 nM.
On to `C[C@]12CCCCC[C@@H]1CC[C@@H]1[C@@H]2CC[C@]2(C)C(n3ccnc3)=CC[C@@H]12` [Compound 97, 1-((3aS,3bR,5aR,10aS,10bS,12aS)-10a,12a-dimethyl-3,3a,3b,4,5,5a,6,7,8,9,10,10a,10b,11,12,12a-hexadecahydrocyclohepta[a]cyclopenta[f]naphthalen-1-yl)-1H-imidazole], for which the inhibition at 0.01 µM in series [1] lay in the range of 50 to 80%. In series [2], this compound came in with a half-life at 1 μM of 10 to 60 min. For the same compound, the half-maximal inhibitory concentration (IC50) in series [3] is below 11 nM.
As for `CN1C(=O)COC[C@@]2(C)C1CC[C@@H]1[C@@H]2CC[C@]2(C)C(c3cccnc3)=CC[C@@H]12` (stereo partly drawn) [Compound 98, (5aR,5bS,7aS,10aS,10bS)-1,5a,7a-trimethyl-8-(pyridin-3-yl)-5,5a,5b,6,7,7a,10,10a,10b,11,12,12a-dodecahydro-1H-cyclopenta[5,6]naphtho[2,1-e][1,4]oxazepin-2(3H)-one], the inhibition at 0.01 µM in series [1] lay within 50 to 80%. Also, the half-life at 1 μM in series [2] is 1 to 10 min. The IC50 in series [3] was below 11 nM.
As for `Cc1cncc(C2=CC[C@H]3[C@@H]4CC[C@H]5COC(=O)CC[C@]5(C)[C@H]4CC[C@]23C)c1` [Compound 119, (5aR,5bS,7aS,10aS,10bR,12aR)-5a,7a-dimethyl-8-(5-methylpyridin-3-yl)-5,5a,5b,6,7,7a,10,10a,10b,11,12,12a-dodecahydro-1H-cyclopenta[5,6]naphtho[2,1-c]oxepin-3(4H)-one], in series [1], the inhibition at 0.01 µM fell in the range of 1 to 50%. Besides, in series [2], the half-life at 1 μM lay in the range of 1 to 10 min.
Turning to `C[C@]12CCOCC[C@@H]1CC[C@@H]1[C@@H]2CC[C@]2(C)C(c3cccnc3)=CC[C@@H]12` [Compound 120, 3-((5aS,5bS,7aS,10aS,10bR,12aS)-5a,7a-dimethyl-2,4,5,5a,5b,6,7,7a,10,10a,10b,11,12,12a-tetradecahydro-1H-cyclopenta[5,6]naphtho[1,2-d]oxepin-8-yl)pyridine], the inhibition at 0.01 µM in series [1] was above 80%. In series [2], this compound returned a half-life at 1 μM of 1 to 10 min. Also, in series [3], the half-maximal inhibitory concentration (IC50) is below 11 nM.
As for `C[C@]12CCCOC[C@H]1CC[C@@H]1[C@@H]2CC[C@]2(C)C(c3cccnc3)=CC[C@@H]12` [Compound 121, 3-((5aR,5bS,7aS,10aS,10bR,12aS)-5a,7a-dimethyl-3,4,5,5a,5b,6,7,7a,10,10a,10b,11,12,12a-tetradecahydro-1H-cyclopenta[5,6]naphtho[2,1-c]oxepin-8-yl)pyridine], the inhibition at 0.01 µM in series [1] is above 80%. In series [2], this compound displayed a half-life at 1 μM of 1 to 10 min. The IC50 in series [3] is below 11 nM.
Taken in the same sequence, the figures for `COc1cncc(C2=CC[C@H]3[C@@H]4CC[C@H]5CCOCC[C@]5(C)[C@H]4CC[C@]23C)c1` [Compound 122, 3-((5aS,5bS,7aS,10aS,10bR,12aS)-5a,7a-dimethyl-2,4,5,5a,5b,6,7,7a,10,10a,10b,11,12,12a-tetradecahydro-1H-cyclopenta[5,6]naphtho[1,2-d]oxepin-8-yl)-5-methoxypyridine] were 50 to 80%, 1 to 10 min and below 11 nM.
For `COc1cncc(C2=CC[C@H]3[C@@H]4CC[C@H]5COCCC[C@]5(C)[C@H]4CC[C@]23C)c1` [Compound 123, 3-((5aR,5bS,7aS,10aS,10bR,12aR)-5a,7a-dimethyl-3,4,5,5a,5b,6,7,7a,10,10a,10b,11,12,12a-tetradecahydro-1H-cyclopenta[5,6]naphtho[2,1-c]oxepin-8-yl)-5-methoxypyridine], in series [1], the inhibition at 0.01 µM is 50 to 80%. Moreover, the half-life at 1 μM in series [2] was in the range of 1 to 10 min. Further, in series [3], the IC50 was below 11 nM.
Take `CCOc1cncc(C2=CC[C@H]3[C@@H]4CC[C@H]5COCCC[C@]5(C)[C@H]4CC[C@]23C)c1` [Compound 125, 3-((5aR,5bS,7aS,10aS,10bR,12aR)-5a,7a-dimethyl-3,4,5,5a,5b,6,7,7a,10,10a,10b,11,12,12a-tetradecahydro-1H-cyclopenta[5,6]naphtho[2,1-c]oxepin-8-yl)-5-ethoxypyridine]: the inhibition at 0.01 µM in series [1] is 50 to 80%. The half-life at 1 μM in series [2] fell in the range of 1 to 10 min. In series [3], the IC50 was below 11 nM.
As to `Cc1cncc(C2=CC[C@H]3[C@@H]4CC[C@H]5COCCC[C@]5(C)[C@H]4CC[C@]23C)c1` [Compound 127, 3-((5aR,5bS,7aS,10aS,10bR,12aR)-5a,7a-dimethyl-3,4,5,5a,5b,6,7,7a,10,10a,10b,11,12,12a-tetradecahydro-1H-cyclopenta[5,6]naphtho[2,1-c]oxepin-8-yl)-5-methylpyridine], the inhibition at 0.01 µM in series [1] lay within 50 to 80%. The compound also had a half-life at 1 μM in series [2] of 1 to 10 min. In series [3], the half-maximal inhibitory concentration (IC50) is below 11 nM.
The corresponding values for `Cc1cn(C2=CC[C@H]3[C@@H]4CCC5=CC(=O)NCC[C@]5(C)[C@H]4CC[C@]23C)cn1` [Compound 154] are 50 to 80%, 10 to 60 min and below 11 nM.

The values above are taken from patent publication US20130252930A1 (BIOMARIN PHARMACEUTICAL INC., priority 2010, published 2013).
